Reference: the NIST ThermoML archive (doi:10.1021/je060496l)

Legend:
[1] = 101 kPa, Liquid
[2] = xn = mol fraction of the nth substance listed; conditions: 101 kPa, Liquid

CC(O)CO (stereo not drawn) [1,2-propanediol]
[1]
Conditions	mass density [kg/m3]
298.15 K	1032.5
303.15 K	1029.2
308.15 K	1025.3
313.15 K	1021.5
318.15 K	1018
323.15 K	1014
328.15 K	1010.2
333.15 K	1006.2

CC(O)CO (stereo not drawn) [1,2-propanediol] + OCC(O)CO
mass density [kg/m3], [2]
Conditions	x2 = 0	x2 = 0.0841	x2 = 0.1712	x2 = 0.2615	x2 = 0.3552	x2 = 0.4524	x2 = 0.5534	x2 = 0.6585	x2 = 0.7677	x2 = 0.8815
298.15 K	1032.5	1052.6	1072.7	1094.1	1115.8	1138.3	1161	1184.4	1207.8	1233.3
303.15 K	1029.2	1049.2	1069.6	1090.5	1112.6	1134.8	1157.5	1181.2	1205	1230.1
308.15 K	1025.3	1045.7	1066.1	1087.1	1109.3	1131.4	1154.2	1178	1202.2	1227.4
313.15 K	1021.5	1042	1062.4	1083.8	1105.6	1128.2	1151.2	1175.1	1199.2	1224.4
318.15 K	1018	1038.5	1058.6	1080.2	1102.3	1124.8	1147.9	1171.5	1195.6	1221
323.15 K	1014	1034.7	1055	1076.3	1098.3	1121.2	1144.1	1168.1	1192.5	1218
328.15 K	1010.2	1031	1051.4	1072.7	1094.7	1117.5	1140.5	1164.6	1189	1214.7
333.15 K	1006.2	1027.2	1047.6	1069.2	1091.2	1114.3	1137.3	1161.3	1185.8	1211.3
